Experimental data reported in ChEMBL document CHEMBL1158820, “Avrainvilloside, a 6-deoxy-6-aminoglucoglycerolipid from the green alga Avrainvillea nigricans” (J Nat Prod, 2005).

Tested on: WEHI-164
Experiment: Cytotoxicity against mouse WEHI164 cells
Assay type: functional, cell-based

**Q.** How did the IC50 turn out when `CCCCCCCCCCCCCCCCCC(=O)OC[C@H](CO[C@H]1O[C@H](CN)[C@@H](O)[C@H](O)[C@H]1O)OC(=O)CCCCCCCCCCCCCCCCC` [AVRAINVILLOSIDE] was run?
**A.** > 10 µg/mL
